Results published in patent US20120277409A1, “METAL-POLYSACCHARIDE CONJUGATES: COMPOSITIONS, SYNTHESIS AND METHODS FOR CANCER THERAPY” (priority 2007, published 2012).
Entries after “also recorded” stand apart in the source; their conditions may differ. Where two headings read alike, the source gives them in different places.

Columns and labels:
[1] = system: platinum-resistant ovarian cancer cell line 2008-c13; assay: Flow cytometry (propidium iodide) of apoptosis / sub-G1 fraction; type: cell-based, human; conditions: for sub-G1 fraction (hypodiploid cells): 48 hours and 72 hours of drug exposure, same doses
Procedure: To determine the effectiveness of platinum-polysaccharide conjugate (PC) against platinum-resistant ovarian cancer cells, 2008-c13 cells ([…]) were treated with platinum-polysaccharide conjugate (PC). The cells were trypsinized and centrifuged at 2500 rpm for 5 min. After being washed with 1×PBS two times, cells were fixed with 70% ethanol overnight, washed twice with 1×PBS, and resuspended in 1 mL of propidium iodide (PI) solution (1×10^6 cells/mL). RNase (20 μg/mL) solution was added followed by 1 mL of propydium iodide solution (PI, 50 μg/mL in PBS). Samples were incubated at 37° C. for 15 min, and PI fluorescence was analyzed using a EPIS XL analyzer.
This effect was tested by flow cytometry in the 2008.C13 cell line after 48 hours and 72 hours of drug exposure.

[2] = system: platinum-resistant ovarian cancer cell line 2008-c13; assay: TUNEL assay of apoptosis; type: cell-based, human; conditions: 48 hours, compared at each dose, P<0.05
Source text: DNA fragmentation typical of apoptosis was further determined by the TUNEL assay in three independent experiments.

[3] = system: PARP / caspase-3 cleavage in 2008-c13 cells; assay: Western blot of cleaved PARP and cleaved caspase-3; type: cell-based, human; conditions: 48 hours; for cleaved PARP expression: 2008-c13 cells; for cleaved caspase-3 expression: 2008.C13 cells
Procedure: The effect of the platinum-polysaccharide conjugate of Example 1 on tumor cells was analyzed by treating 2008-c13 […] cells with the conjugate, then analyzing the effects on cellular proteins through a Western blot (FIG. 11).
To determine whether apoptosis is induced through a caspase-3-dependent pathway followed by the cleavage of PARP, levels of cleaved caspase-3 and PARP, which form after caspase-3 activation, were determined by Western blot analysis.

2008.C13 cells = assay: Flow cytometric cell-cycle analysis (S-phase arrest); type: cell-based, human; conditions: 48 hours
[4] = system: p21 and cyclin A in 2008.C13 cells; assay: p21 and cyclin A expression (Northern/Western blot); type: cell-based, human; conditions: 48 hours of drug exposure
Procedure: To elucidate the mechanism underlying S-phase arrest caused by CDDP and PC in 2008.C13 cells, the expression of p21 and cyclin A, which are important for cell-cycle regulation in the S phase, was examined in 2008.C13 cells after 48 hours of drug exposure.

[5] = In vitro determination of relaxivity (T1, 7.0 T); type: physicochemical; conditions: in water, Gd 0.01-0.08 mM
Procedure: Solutions of Gd-EDTA-chitosan and Gd-DTPA were prepared in water at Gd concentrations of 0.01 mM, 0.02 mM, 0.04 mM and 0.08 mM. Spin lattice (T1) relaxivity was measured at 7.0 T. R1 in mM^−1s^−1 was obtained from linear last-squares determination of the slopes of 1/T1 vs [Gd] plot. R1 was calculated as 3.61 and […] for Gd-DTPA and Gd-EDTA-chitosan, respectively.

[6] = system: platinum-resistant ovarian cancer cells (2008-c13)
Procedure: All cells were cultured at 37° C. in a humidified atmosphere containing 5% CO2 in RPMI 1640 medium supplemented with 10% fetal bovine serum and glutamine (2 mM). 2008 or 2008.C13 cells were seeded into 96-well plates (4,000 cells/well) and maintained in RPMI 1640 medium for 24 hours. […] Controls were treated with DMSO or PBS. After cells were treated, their growth and viability were determined by incubating the cells for 1 to 2 hours at 37° C. with 20 μL of tetrazolium substrate. Absorbence was measured at 450 nm using a 96-well Synergy HT-microplate reader (Biotek, Winooski, Vt.) The rate of cell growth inhibition was expressed as a percentage as follows: […]. The experiments were repeated separately three times. Methylene tetrazolium (MTT) dye assay determined the amount of viable cells. Cellular protein content was determined by Lowry assay. The drug concentration that inhibits 50% of cell growth (IC-50) was then determined Data are expressed as the percentage differences compared with controls (OD of cells after treatment/OD of cells without treatment).

[7] = system: breast cancer cells (13762NF) tumor; assay: Anticancer effect in breast tumor-bearing rat model; type: in vivo; conditions: for tumor volume: single dose (Pt 10 mg/kg or chondroitin only)
Procedure: Female Fischer 344 rats (125-175 g) were inoculated with breast cancer cells (13762NF, 10^6 cells/rat, s.c. in the hind leg). After 15-20 days and a tumor volume of […], the breast tumor-bearing rats were administered either the platinum-chondroitin (Platinum-polysaccharide) conjugate (PC) or chondroitin alone at doses of 10 mg Pt/kg (platinum (IV)-polysaccharide) or 45 mg/kg (chondroitin). Tumor volumes and body weight were recorded daily for sixty days. Tumor volumes were measured as [length (l)×width (w)×thickness (h)]/2. Loss of body weight of 15% is considered a chemical-induced toxic effect. […] After treatment with platinum-polysaccharide conjugate, tumor tissues were dissected and embedded in […]. The tumor tissue was fixed in paraffin, and stained with hematoxylin and eosin for histological examinations.

| Compound | sub-G1 fraction (hypodiploid cells) [1] | apoptotic cells by TUNEL [2] | cleaved PARP expression [3] | cleaved caspase-3 expression [3] | cyclin A expression [4] | p21 expression [4] | R1 (spin lattice T1 relaxivity) [5] [mM⁻¹ s⁻¹] | tumor volume ([7]; 24 hours) [cm^3] | tumor volume ([7]; 94 hrs) [cm^3] | other results |
| --- | --- | --- | --- | --- | --- | --- | --- | --- | --- | --- |
| N.N.[Cl][Pt][Cl] [CDDP, cis-diamminedichloroplatinum (II), reference compound] | dose-dependent increase | dose-dependent increase | increased from 2.5 μg/mL to 20 μg/mL | expressed in a pattern similar to that of PARP | Neither p21 nor cyclin A expression was related to the extent of S-phase arrest | Neither p21 nor cyclin A expression was related to the extent of S-phase arrest |  |  |  | maximal S-phase arrest (2008.C13 cells; 20 μg/mL): 84.8% |
| O=C([O-])CN(CCN(CC(=O)[O-])CC(=O)O)CCN(CC(=O)[O-])CC(=O)O.[Gd+3] [Gd-DTPA, reference compound] |  |  |  |  |  |  | 3.61 |  |  |  |
| Cis-1,2-DACH-dichloro-Pt (IV)-aspartate-chondroitin [PC] | more pronounced increase in the sub-G1 fraction; also recorded: substantially more sub-G1 cells than did CDDP | many more cells experiencing apoptosis; also recorded: much higher levels of apoptosis | significantly increased; also recorded: cleaved PARP expression induced by high-dose (20 μg/mL) PC appeared to be lower than that induced by low-dose PC | comparable to that in the CDDP-treated group, except for the lower expression seen at 5 μg/mL | up-regulated after high-dose PC treatment and was maintained at a low level after low-dose PC treatment | up-regulated with maximal S-phase arrest after low-dose PC treatment, but not after high doses; also recorded: increased p21 expression |  | 5.2661 | 0.8782 | enhancement of tumor killing compared with cisplatin ([6]; 2.5 μg/mL, 48 hours): 5.9 times; enhancement of tumor killing compared with cisplatin ([6]; 2.5 μg/mL, 72 hours): 9.3 times; enhancement of tumor killing compared with cisplatin ([6]; 5 μg/mL, 48 hours): 4.6 times; enhancement of tumor killing compared with cisplatin ([6]; 5 μg/mL, 72 hours): 1.5 times; cell growth inhibition (in words) ([6]; low doses): significantly inhibit cell growth; apoptotic effect by flow cytometry ([1]; 2.5 and 5 μg/mL, compared to cisplatin): significantly enhanced the apoptotic effect; effect against breast tumor growth (in words) ([7]; 10 mg Pt/kg): effective in vivo against breast tumor growth; tumor necrosis (H & E histology) ([7]; 94 hrs post-administration): Extensive necrosis; S-phase arrest (2008.C13 cells; 2.5 μg/mL): 90.3%; S-phase arrest (2008.C13 cells; 5 μg/mL): 90.1% |
| Gd-EDTA-chitosan |  |  |  |  |  |  | 9.59 |  |  |  |
| chondroitin [reference compound] |  |  |  |  |  |  |  | 5.2591 | 14.3622 |  |
